Experimental data published in BigSolDB 2.1.

COc1cccc(Nc2ccccc2)c1
Conditions	solubility (mole fraction)
in 1,2-dichloroethane, 287.65 K	0.149
in 1,2-dichloroethane, 292.3 K	0.182
in 1,2-dichloroethane, 297.35 K	0.216
in 1,2-dichloroethane, 302.55 K	0.258
in 1,2-dichloroethane, 308.65 K	0.312
in 1,2-dichloroethane, 313.15 K	0.355
in 1,2-dichloroethane, 318.85 K	0.401
in 1,2-dichloroethane, 324.25 K	0.443
in 1,2-dichloroethane, 329.55 K	0.502
in 1,2-dichloroethane, 333.75 K	0.545
in acetone, 287.25 K	0.237
in acetone, 292.85 K	0.264
in acetone, 298.95 K	0.3
in acetone, 303.05 K	0.327
in acetone, 308.15 K	0.361
in acetone, 313.05 K	0.407
in acetone, 317.55 K	0.456
in acetone, 321.75 K	0.513
in chloroform, 290.25 K	0.181
in chloroform, 295.25 K	0.218
in chloroform, 300.55 K	0.258
in chloroform, 306.15 K	0.308
in chloroform, 311.5 K	0.35
in chloroform, 315.5 K	0.386
in chloroform, 319.8 K	0.424
in chloroform, 323.13 K	0.456
in ethyl acetate, 287.15 K	0.195
in ethyl acetate, 291.05 K	0.225
in ethyl acetate, 295.55 K	0.254
in ethyl acetate, 300.18 K	0.283
in ethyl acetate, 306.35 K	0.329
in ethyl acetate, 311.25 K	0.366
in ethyl acetate, 316.25 K	0.407
in ethyl acetate, 321.35 K	0.442
in ethyl acetate, 326.25 K	0.5
in ethyl acetate, 330.15 K	0.543
in methanol, 287.25 K	0.0134
in methanol, 291.95 K	0.0174
in methanol, 296.65 K	0.0214
in methanol, 301.15 K	0.0268
in methanol, 305.35 K	0.0339
in methanol, 311.85 K	0.0478
in methanol, 316.25 K	0.0579
in methanol, 321.25 K	0.0724
in methanol, 327.15 K	0.0972

CSc1cccc(Nc2ccccc2)c1
Conditions	solubility (mole fraction)
in 1,2-dichloroethane, 287.65 K	0.189
in 1,2-dichloroethane, 292.3 K	0.231
in 1,2-dichloroethane, 296.85 K	0.278
in 1,2-dichloroethane, 300.95 K	0.311
in 1,2-dichloroethane, 305.35 K	0.36
in 1,2-dichloroethane, 310.45 K	0.415
in 1,2-dichloroethane, 315.15 K	0.466
in 1,2-dichloroethane, 319.75 K	0.515
in 1,2-dichloroethane, 324.25 K	0.562
in 1,2-dichloroethane, 329.55 K	0.615
in 1,2-dichloroethane, 333.75 K	0.654
in acetone, 287.45 K	0.254
in acetone, 292.55 K	0.306
in acetone, 296.15 K	0.343
in acetone, 300.35 K	0.381
in acetone, 305.45 K	0.438
in acetone, 310.65 K	0.5
in acetone, 315.15 K	0.551
in acetone, 321.75 K	0.643
in chloroform, 288.85 K	0.226
in chloroform, 293.35 K	0.263
in chloroform, 297.05 K	0.296
in chloroform, 302 K	0.338
in chloroform, 307.55 K	0.391
in chloroform, 313.25 K	0.449
in chloroform, 318.75 K	0.511
in chloroform, 323.13 K	0.557
in ethyl acetate, 287.85 K	0.231
in ethyl acetate, 292.95 K	0.281
in ethyl acetate, 297.25 K	0.311
in ethyl acetate, 302.15 K	0.357
in ethyl acetate, 306.65 K	0.403
in ethyl acetate, 311.25 K	0.452
in ethyl acetate, 316.45 K	0.516
in ethyl acetate, 321.35 K	0.573
in ethyl acetate, 325.85 K	0.643
in ethyl acetate, 330.15 K	0.711
in methanol, 287.65 K	0.0115
in methanol, 291.55 K	0.016
in methanol, 297.15 K	0.0235
in methanol, 302.4 K	0.0342
in methanol, 307.25 K	0.046
in methanol, 311.95 K	0.0608
in methanol, 316.35 K	0.0761
in methanol, 321.25 K	0.0951
in methanol, 327.15 K	0.121
